Measured values published in ChEMBL document CHEMBL1201862, “PubChem BioAssay data set” (2004).
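Following 48 hours of exposure in 96-well plates, responses at five concentrations were used to interpolate endpoints linearly. Abbreviation: GI50, concentration required for 50% inhibition of growth.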 Calls of active or inactive are those of the source. Cut-off read from the data, not from the text of the source: active = GI50 up to about 1.1 µM and inactive = higher.

Tests used:
Assay in all cases: DTP human tumour cell line panel, 48 h
NCI-H522 = test system: NCI-H522
M14 = test system: M14
KM12 = test system: KM12
SK-MEL-2 = test system: SK-MEL-2
CCRF-CEM = test system: CCRF-CEM
SNB-19 = test system: SNB-19
SF-295 = test system: SF-295
786-0 = test system: 786-0
OVCAR-5 = test system: OVCAR-5
SR = test system: SR
SN12C = test system: SN12C
A498 = test system: A498
SNB-78 = test system: SNB-78
IGROV-1 = test system: IGROV-1
OVCAR-4 = test system: OVCAR-4
CAKI-1 = test system: CAKI-1
K562 = test system: K562
LXFL 529 = test system: LXFL 529

CCN1c2ccccc2-c2c3c1cc(C)cc3c1ccccc1[n+]2CC was tested, and the GI50 (NCI-H522) was 1.26 µM (inactive), the GI50 (M14) was 1.69 µM (inactive) and the GI50 (KM12) was 0.339 µM (active). For the same compound, the GI50 (SK-MEL-2) was 1.21 µM (inactive), the GI50 (CCRF-CEM) was 0.621 µM (active) and the GI50 (SNB-19) was 0.528 µM (active). The GI50 (SF-295) was 0.78 µM (active), the GI50 (786-0) was 1.59 µM (inactive) and the GI50 (OVCAR-5) was 1.5 µM (inactive). The GI50 (SR) was 1.55 µM (inactive), the GI50 (SN12C) was 0.659 µM (active) and the GI50 (A498) was 3.26 µM (inactive). For the same compound, the GI50 (SNB-78) was 2.64 µM (inactive), the GI50 (IGROV-1) was 1.66 µM (inactive) and the GI50 (OVCAR-4) was 1.57 µM (inactive). The GI50 (CAKI-1) was 2.26 µM (inactive), the GI50 (K562) was 0.323 µM (active) and the GI50 (LXFL 529) was 0.384 µM (active).
COc1cc2c(c(OC)c1OC)-c1ccc(SC)c(=O)cc1C(CC(=O)Oc1ccccc1F)C2 (stereo unspecified) was tested, and the GI50 (NCI-H522) was 0.0108 µM (active), the GI50 (M14) was 0.0175 µM (active) and the GI50 (KM12) was < 0.0075 µM (active). For the same compound, the GI50 (SK-MEL-2) was 0.0251 µM (active), the GI50 (CCRF-CEM) was 0.0132 µM (active) and the GI50 (SNB-19) was 0.0139 µM (active). For the same compound, the GI50 (SF-295) was < 0.0075 µM (active), the GI50 (786-0) was < 0.0075 µM (active) and the GI50 (OVCAR-5) was 2.94 µM (inactive). The GI50 (SR) was < 0.0075 µM (active), the GI50 (SN12C) was 0.0193 µM (active) and the GI50 (A498) was 0.0269 µM (active). For the same compound, the GI50 (SNB-78) was 0.0206 µM (active), the GI50 (IGROV-1) was 0.164 µM (active) and the GI50 (OVCAR-4) was 1.03 µM (active). For the same compound, the GI50 (CAKI-1) was 0.0172 µM (active), the GI50 (K562) was < 0.0075 µM (active) and the GI50 (LXFL 529) was 0.0266 µM (active).
